# From patent US9364496B2 (ONCOGENEX TECHNOLOGIES INC., priority 2013, dated 2016)
# Entries after “also recorded” stand apart in the source; their conditions may differ. Where two headings read alike, the source gives them in different places. Oligonucleotides are written 5' to 3', each unit as a sugar letter and its base; * is a phosphorothioate linkage, no mark a phosphodiester; rarer units and linkages stand in square brackets, end groups in braces. Plain capitals give the bases only. e = 2'-O-(2-methoxyethyl) (MOE); [5mC] = 5-methylcytosine; d = 2'-deoxy (DNA)
# What was measured:
# bladder cancer = format: in vivo, human; details: each group; loading doses then custirsen with a chemotherapeutic agent
# Source text: At least 50 bladder cancer patients are separated into two groups.
# breast cancer = format: in vivo, human; details: each group; loading doses then custirsen with a chemotherapeutic agent
# Source text: At least 50 breast cancer patients are separated into two groups.
# melanoma = format: in vivo, human; details: each group; loading doses then custirsen with a chemotherapeutic agent
# Source text: At least 50 melanoma patients are separated into two groups.
# [1] = in vivo
# [2] = in vivo; remark: listed apart in the source
# [3] = in vivo; remark: listed apart in the source
# [4] = human, in vivo
# [5] = Phase I dose-escalation Study OGX-011-01, custirsen with neoadjuvant hormone therapy, prostate cancer patients; details: 40 mg to 640 mg custirsen, repeated doses with neoadjuvant hormone therapy
# [6] = Custirsen up-titration with dexamethasone premedication, tolerability and ECG Holter (discussion); details: with or without premedication with dexamethasone
# clusterin = details: cited from earlier work
# lung cancer = format: in vivo, human; details: each group; loading doses then custirsen with a chemotherapeutic agent
# Source text: At least 50 lung cancer patients are separated into two groups.
substance,measurement,setting,value
"Custirsen: anti-clusterin antisense oligonucleotide CAGCAGCAGAGTCTTCATCAT, phosphorothioate backbone, 2′-O-methoxyethyl at nucleotides 1-4 and 18-21, 5-methylcytosines at 1, 4, 19 (antisense e[5mC]*eA*eG*e[5mC]*dA*dG*dC*dA*dG*dA*dG*dT*dC*dT*dT*dC*dA*eT*e[5mC]*eA*eT; listed as Homo sapiens)",cancer condition of patients,bladder cancer,improves
same,cancer condition of patients,breast cancer,improves
same,cancer condition of patients,melanoma,improves
same,grade-4 liver toxicity,[1],no reports
same,incidence of elevated liver function tests (ELFTs),[1],higher incidence
same,"chills, patients",[2],35%
same,"fever, patients",[2],50%
same,occurrence of grade 3/4 hepatic toxicity,[2],rare
same,severity of fever and chills/rigors,[2],usually mild (grade 1-2)
same,time of appearance of fever and chills/rigors after the infusion,[2],4 to 8 h
same,"incidence of the most common adverse events (fatigue, chills, nausea, pyrexia, etc.)",[3],more than 20 % of the patients
same,occurrence of grade 3/4 renal toxicity,[3],rare
same,INR values,[4],≤ 1.5
same,"grade 1 increase in PTT, number",[4],1
same,hepatic transaminase elevations,[4],Grade 1 and 2
same,incidence of elevated liver function tests (ELFTs),[4],higher incidence
same,"dose limiting toxicities, deaths, AEs leading to withdrawal",[5],"No dose limiting toxicities, deaths, or adverse events (AEs) leading to withdrawal were reported"
same,effect of up-titration (reduced loading doses) on constitutional syndrome / side effects,[6],mitigated
same,expression of clusterin,clusterin,potently regulated the expression of clusterin; also recorded: potently reduces the expression of clusterin
same,sensitization of cancer cells to chemotherapy,"clusterin; human prostate, breast, ovarian, lung, renal, bladder, and melanoma cells",sensitizes
same,cancer condition of patients,lung cancer,improves
